Patent US20240269120A1, “Method for Treating an Autoimmune and Inflammatory Disease” (Cellestia Biotech AG, priority 2021, published 2024)

Key:
[1] = tested on: NSG mice injected with human PBMCs (GvHD); test: Humanized GvHD mouse model, ex vivo pre-treated PBMCs plus in vivo treatment; parameters: GvHD clinical score: Body weight loss (D59) / GvHD clinical score: Paleness (D59) / GvHD clinical score: Posture (D59) / GvHD clinical score: Skin integrity (day 45) / GvHD clinical score: Activity score / GvHD clinical score: Fur texture (day 45): scale not given here; settings: for GvHD clinical score: Body weight loss (D59): label = ex vivo PBMC treatment (7 hrs)/in vivo treatment (3 days), DMSO/Vehicle 2.0; for GvHD clinical score: Paleness (D59) / GvHD clinical score: Activity score / GvHD clinical score: Skin integrity (day 45) / GvHD clinical score: Posture (D59) / GvHD clinical score: Fur texture (day 45) / Cumulative GvHD score: label = ex vivo PBMC treatment/in vivo treatment; for GvHD clinical score: Paleness (D59): DMSO/Vehicle 0.9; for GvHD clinical score: Activity score: DMSO/Vehicle 1.0; for GvHD clinical score: Skin integrity (day 45): DMSO/Vehicle 1.25; for GvHD clinical score: Posture (D59): DMSO/Vehicle 1.3; for GvHD clinical score: Fur texture (day 45): DMSO/Vehicle 1.35; for Cumulative GvHD score: sum of individual scores, DMSO/Vehicle 7.8
Protocol: Humanized GvHD mouse model: 6-8 weeks old NSG mice were intraperitoneally injected with 10 million human peripheral blood mononuclear cells (PBMCs) as below:
A cumulative GvHD clinical score was calculated by addition of scores for individual parameters (e.g. cumulative score=BWL+posture+activity+fur texture+skin integrity+paleness).
Ex-vivo pre-treatment of PBMCs and in-vivo treatment of mice: Human PBMCs were ex-vivo treated with either DMSO or 6-(4-tert-butylphenoxy)pyridin-3-amine and then intraperitoneally injected into NSG mice. Mice were in vivo treated with different compounds as below: • i. DMSO ex vivo hPBMCs treatment (7 hrs), plus vehicle in vivo treatment • ii. DMSO ex vivo hPBMCs treatment (7 hrs), plus 6-(4-tert-butylphenoxy)pyridin-3-amine in vivo treatment for 3 days • iii. 6-(4-tert-butylphenoxy)pyridin-3-amine ex vivo hPBMCs treatment (7 hrs), plus 6-(4-tert-butylphenoxy)pyridin-3-amine in vivo treatment for 3 days • iv. DMSO ex vivo PBMCs treatment (7 hrs) plus Ruxolitinib in vivo treatment for 3 days • v. 6-(4-tert-butylphenoxy)pyridin-3-amine ex vivo hPBMCs treatment (7 hrs), plus Ruxolitinib in vivo treatment for 3 days
(§1) Following PBMC injections, mice were treated with vehicle or 6-(4-tert-butylphenoxy)pyridin-3-amine or Ruxolitinib starting at day 0. Mice were monitored from 60-85 days for symptoms of GvHD and scored according to a standard clinical scoring system for GvHD (Naserian et al., 2018) (see table 1) and a cumulative clinical score was obtained by addition of clinical score for individual parameters. A maximum score of 6 is measured when reaching endpoint. Cell proliferation assay: The effect of compounds on T cell proliferation was quantified using Cell trace violet (CTV). PBMCs/splenocytes were incubated with CTV for 20 minutes at 37° C. Cells were washed twice with RPMI complete medium. CTV labelled cells were stimulated with anti-CD3 and anti-CD28 antibodies and treated with control or compounds and cultured at 37° C. for 96 hours. The cell division index was measured by flow cytometry.

[2] = tested on: IL-6; test: ELISA of supernatant from activated human PBMC cultures: IL-6; assay type: cell-based; settings: control 0%
Protocol: (§2) Human PBMCs and mouse splenocyte in vitro stimulation and treatment: Human peripheral blood mononuclear cells (PBMCs) and mouse splenocytes from donors were stimulated in vitro with anti-CD3 and anti-CD28 antibodies. The stimulated cells were simultaneously treated with compounds for 96 hours. The T cells were profiled for different cell surface and intracellular markers and proliferation by flow cytometry.
(§3) ELISA assay: Supernatant from activated human PBMC cultures described above was separated from cells at the end of culture time. Key cytokines (IL-6, IFN-γ, IL-17) were quantified using sandwich ELISA reagents set (Diaclone) following manufacturer's instruction manual.

[3] = tested on: IL-17; test: ELISA of supernatant from activated human PBMC cultures: IL-17; assay type: cell-based; settings: control 0%
Protocol: as §2, §3

[4] = tested on: activated CD4 T cells; test: Cell proliferation assay (Cell trace violet), activated CD4 T cells; assay type: cell-based; settings: control 0%
Protocol: as §1
(§4) Flow cytometry analysis: Flow cytometry analysis was performed to quantify cell surface and intracellular markers expression and measure cell division index.

[5] = tested on: IFNG; test: ELISA of supernatant from activated human PBMC cultures: IFNG; assay type: cell-based; settings: control 0%
Protocol: as §2, §3

[6] = tested on: Treg cells; test: Treg expansion in activated human PBMC cultures (anti-CD3/anti-CD28, flow cytometry); assay type: cell-based; settings: anti-CD3 and anti-CD28, 96 hours, control 0%
Protocol: as §2, §4
Viability staining: Cells were transferred into a 96 well conical bottom plate and washed with serum free PBS1×. Cells were incubated with Zombie NIR (Biolegend #423105)+FC block ([…]) for 20 minutes at 4° C. Cells were washed with staining medium (SM) (1×HBSS, 2.5 mM EDTA, 2% NBS
Cell surface marker staining: Cells were stained with antibodies against cell surface markers (CD3, CD4, CD8, CD25, Biolegend or ThermoFisher) for 20 minutes at 4° C. Cells were washed with SM before continuing with nuclear staining.
FOXP3 nuclear staining: Cells were fixed and permeabilized with Foxp3 Transcription Factor Staining Buffer Set (ThermoFisher #00-5523) for 20 minutes at room temperature. […] Results are finally analysed with the software FlowJo v.10.7.1.

[7] = tested on: activated CD8 T cells; test: Cell proliferation assay (Cell trace violet), activated CD8 T cells; assay type: cell-based; settings: control 0%
Protocol: as §1, §4

[8] = tested on: irradiated Balb/c mice transplanted with TCD-BM + splenocytes from C57Bl6 mice (GvHD); test: Allogeneic bone marrow transplant GvHD model; assay type: in vivo, mouse; settings: allo-bone marrow transplant, compared with vehicle
Protocol: Allogeneic Bone marrow transplant: Recipient Balb/c mice were irradiated twice 3.75Gy (T=0 and T=4 h) in an X-ray source irradiator before transplantation at T=8 h. Treatment with antibiotics (Nopil) and analgesic (Dafalgan) was supplemented to drinking water 4 days before injection. Irradiated recipient Balb/c mice were transplanted with 5 million T cell depleted bone marrow+1 million splenocytes. Allogeneic recipient animals were treated with vehicle or 6-(4-tert-butylphenoxy)pyridin-3-amine subcutaneously at 20 mg/kg for two days immediately after allo-BM transplant, given a 10 days treatment holiday to recover body weight loss due to whole body irradiation and then treatment continued at 20 mg/kg. […] Animals were monitored for symptoms of GvHD development (severe body weight loss, alopecia and diarrhea.
Graft vs host disease (GvHD) is an example of alloimmune disease that develops following allo-hematopoetic stem cell transplant (allo-HSCT) in humans. The activity of 6-(4-tert-butylphenoxy)pyridin-3-amine and a calcineurin inhibitor Cyclosprin A was investigated in a mouse model of GvHD following allo-bone marrow transplant. In this model, T cell depleted bone marrow cells (TCD-BM)+splenocytes from C57Bl6 mice were transplanted into irradiated Balb/c mice.

Row | Compound | GvHD clinical score: Body weight loss (D59) [1] | GvHD clinical score: Paleness (D59) [1] | GvHD clinical score: Activity score [1] | GvHD clinical score: Skin integrity (day 45) [1] | GvHD clinical score: Posture (D59) [1] | GvHD clinical score: Fur texture (day 45) [1] | Cumulative GvHD score [1] | Percentage downregulation of IL-6 [2] | Percentage downregulation of IL-17 [3] | Percentage inhibition of CD4 T cells (proliferation) [4] | Percentage downregulation of IFNG [5] | expansion of Treg cells [6] | Percentage inhibition of CD8 T cells (proliferation) [7] | prevention of GvHD development (in words) [8]
1 | CC(C)(C)c1ccc(Oc2ccc(N)cn2)cc1 [6-(4-tert-butylphenoxy)pyridin-3-amine/6-(4-tert-butylphenox] | 0.9 | 1.2 | 0.5 | 0.7 | 0.7 | 1.2 | 5.2 | – | – | – | – | – | – | –
2 | Cc1nc(Oc2ccc(-c3ccc(F)cc3)cc2)ccc1N [6-((4′-fluoro-[1,1′-biphenyl]-4-yl)oxy)-2-methylpyridin-3-amine] | – | – | – | – | – | – | – | 66% | 78% | 40% | 41% | 120% | 74% | –
3 | CC(C)(C)c1ccc(Oc2ccc(N)cn2)cc1 [DMSO/6-(4-tert-butylphenoxy)pyridin-3-amine] | 1.35 | 1.2 | 0.5 | 0.65 | 1.3 | 0.95 | 5.95 | – | – | – | – | – | – | –
4 | N#CC[C@H](C1CCCC1)n1cc(-c2ncnc3[nH]ccc23)cn1 [DMSO/Ruxolitinib, Ruxolitinib, reference compound] | 1.6 | 0.9 | 0.9 | 1.2 | 1.2 | 1.1 | 6.9 | – | – | – | – | – | – | –
5 | CNc1ccc(Oc2ccc(-c3cncs3)cc2)nc1 [N-methyl-6-(4-(thiazol-5-yl)phenoxy)pyridin-3-amine] | – | – | – | – | – | – | – | 80% | 85% | – | 38% | – | – | –
6 | Cyclosporin A [reference compound] | – | – | – | – | – | – | – | – | – | – | – | – | – | did not perform better than vehicle treated animals
